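Values below derive from 48-hour exposures of cells grown in 96-well plates, with endpoints linearly interpolated between the two concentrations bracketing the appropriate inhibition level. TGI is the concentration that stops growth completely.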

Test systems include HS 578T breast; M14 melanoma; DU-145 prostate; K-562 leukemia; SR leukemia; SK-MEL-5 melanoma; HCT-15 colon; MOLT-4 leukemia; SNB-75 CNS; SF-295 CNS; U251 CNS; UACC-62 melanoma; LOX IMVI melanoma; PC-3 prostate; NCI-H522 lung; NCI/ADR-RES ovarian; SN12C renal; EKVX NSCLC; HCC-2998 colon.
Common to all, as to assay: growth of human tumour cells (NCI), 48 h

Turning to `Cc1ccc(S(=O)(=O)NC(=O)NC(C(=O)O)C(C)O)cc1` (stereo not given), the TGI with HS 578T breast, in the experiment with M14 melanoma, in the experiment with DU-145 prostate, with K-562 leukemia, in the experiment on SR leukemia and in the experiment with SK-MEL-5 melanoma was greater than 100 µM each time. The TGI in the experiment with HCT-15 colon, in the experiment on MOLT-4 leukemia, in the experiment on SNB-75 CNS, in the experiment on SF-295 CNS, with U251 CNS and in the experiment with UACC-62 melanoma was greater than 100 µM each time. Besides, the TGI with LOX IMVI melanoma, in the experiment on PC-3 prostate, in the experiment on NCI-H522 lung, with NCI/ADR-RES ovarian and in the experiment with SN12C renal was greater than 100 µM in each case.
For the compound `COc1cc(C2=C(C)[C@@H]3CN(CC=C3c3ccc(Cl)cc3)C2)c(S(=O)(=O)O)cc1OC`, the TGI in the experiment with HS 578T breast, in the experiment with M14 melanoma, in the experiment with DU-145 prostate, in the experiment with K-562 leukemia, with SR leukemia and in the experiment on SK-MEL-5 melanoma was greater than 100 µM each time. Moreover, the TGI in the experiment with HCT-15 colon, in the experiment with MOLT-4 leukemia, in the experiment on SNB-75 CNS, in the experiment with EKVX NSCLC, in the experiment with SF-295 CNS and in the experiment on U251 CNS was greater than 100 µM each time. Besides, the TGI in the experiment on UACC-62 melanoma, with LOX IMVI melanoma, in the experiment on PC-3 prostate, with NCI-H522 lung, in the experiment on NCI/ADR-RES ovarian and in the experiment on SN12C renal was greater than 100 µM in each case.
For `CC(C)(O)/C=C\P(C)(=O)c1ccccc1` (stereo not given), the TGI in the experiment on HS 578T breast, with M14 melanoma, with DU-145 prostate, with K-562 leukemia, in the experiment on SR leukemia and with SK-MEL-5 melanoma was greater than 100 µM in each case. Moreover, the TGI in the experiment on HCT-15 colon, in the experiment with SNB-75 CNS, in the experiment with EKVX NSCLC, in the experiment with SF-295 CNS, with U251 CNS and in the experiment on UACC-62 melanoma was greater than 100 µM each time. Moreover, the TGI in the experiment on LOX IMVI melanoma, in the experiment with HCC-2998 colon, with PC-3 prostate, with NCI-H522 lung, with NCI/ADR-RES ovarian and in the experiment with SN12C renal was greater than 100 µM in each case.
Take `O=C1NC(=O)[C@@H](OCC2CCCCC2)[C@@H]2OCC3OC(C(O)C3O)C12` (stereo not given in full): the TGI in the experiment on HS 578T breast, in the experiment on M14 melanoma, with DU-145 prostate, with SR leukemia, in the experiment with SK-MEL-5 melanoma and in the experiment with HCT-15 colon was greater than 100 µM throughout. Further, the TGI in the experiment with MOLT-4 leukemia, in the experiment on EKVX NSCLC, in the experiment on SF-295 CNS, in the experiment with UACC-62 melanoma, with LOX IMVI melanoma and in the experiment on HCC-2998 colon was greater than 100 µM each time. Moreover, the TGI in the experiment on PC-3 prostate, in the experiment with NCI/ADR-RES ovarian and in the experiment on SN12C renal was greater than 100 µM throughout.
Consider `CC(=O)/C(N=Nc1ccc(-n2c(C)nc3ccc(Br)cc3c2=O)cc1)=C(/C)O`, for which the TGI was 91.2 µM with HS 578T breast; greater than 100 µM in the experiment with M14 melanoma; greater than 100 µM in the experiment on DU-145 prostate; greater than 100 µM in the experiment on K-562 leukemia; greater than 100 µM with SR leukemia; greater than 100 µM in the experiment on SK-MEL-5 melanoma. Further, the TGI in the experiment on HCT-15 colon is greater than 100 µM; with MOLT-4 leukemia, greater than 100 µM; with SNB-75 CNS, 77 µM; in the experiment on EKVX NSCLC, greater than 100 µM; in the experiment on SF-295 CNS, greater than 100 µM; in the experiment with U251 CNS, greater than 100 µM. Also, the TGI in the experiment on UACC-62 melanoma, in the experiment on LOX IMVI melanoma, in the experiment with PC-3 prostate, in the experiment on NCI/ADR-RES ovarian and with SN12C renal was greater than 100 µM throughout.
Take `CC(C)(C)OC(=O)NNC(=O)C1Cc2ccccc2OC1=O` (stereo not given): the TGI with HS 578T breast, in the experiment on M14 melanoma, in the experiment with DU-145 prostate, with K-562 leukemia, in the experiment on SR leukemia and with SK-MEL-5 melanoma was greater than 100 µM in each case. Moreover, the TGI in the experiment on HCT-15 colon, in the experiment with MOLT-4 leukemia, in the experiment on EKVX NSCLC, in the experiment with SF-295 CNS, in the experiment with U251 CNS and in the experiment on UACC-62 melanoma was greater than 100 µM each time. Further, the TGI with HCC-2998 colon, in the experiment with PC-3 prostate, in the experiment with NCI-H522 lung, in the experiment on NCI/ADR-RES ovarian and in the experiment with SN12C renal was greater than 100 µM in each case.
Take `CN(C(=O)[C@@H](NC(=O)OC(C)(C)C)c1ccccc1)[C@H]1CCCC[C@@H]1N1CCCC1`: the TGI in the experiment on HS 578T breast, in the experiment with M14 melanoma, in the experiment on DU-145 prostate, with K-562 leukemia, in the experiment on SR leukemia and with SK-MEL-5 melanoma was greater than 100 µM throughout. For the same compound, the TGI with HCT-15 colon, with MOLT-4 leukemia, in the experiment on EKVX NSCLC, in the experiment on SF-295 CNS, in the experiment with U251 CNS and in the experiment with UACC-62 melanoma was greater than 100 µM throughout. The TGI in the experiment on PC-3 prostate, with NCI-H522 lung, with NCI/ADR-RES ovarian and with SN12C renal was greater than 100 µM throughout.
Regarding `CN(C)CCn1c(=O)oc2cc(C(=O)CN3CCOCC3)ccc21`, the TGI in the experiment with HS 578T breast, with M14 melanoma, in the experiment with DU-145 prostate, in the experiment on K-562 leukemia, in the experiment on SR leukemia and with SK-MEL-5 melanoma was greater than 100 µM in each case. In addition, the TGI in the experiment with HCT-15 colon, in the experiment with MOLT-4 leukemia, in the experiment with SNB-75 CNS, in the experiment with EKVX NSCLC, in the experiment on SF-295 CNS and in the experiment on U251 CNS was greater than 100 µM in each case. The TGI in the experiment with UACC-62 melanoma, in the experiment on LOX IMVI melanoma, with PC-3 prostate, in the experiment on NCI/ADR-RES ovarian and in the experiment on SN12C renal was greater than 100 µM each time.

Values taken from PubChem BioAssay (NCI).
